# Experimental data from patent publication US9662327B2 (AGIOS PHARMACEUTICALS, INC, priority 2011, dated 2017).
# Target: IDH1 R132H (Homo sapiens (Human), UniProt O75874, R132H)
# Experiment: Assays for IDH1 R132H Inhibitors (NADPH/aKG, resazurin detection)
# Assay type: biochemical
# Conditions: IDH1 R132H enzyme, Table 2; read-out: IDHR132H Activity
# Summary of the method: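 Substrate mix held 8 uM NADPH plus 2 mM aKG; buffer was 20 mM Tris pH 7.5 with 150 mM NaCl, 10 mM MgCl2, 0.03% BSA. After 50 min room-temperature reaction, NADPH remaining was detected with 30 μM resazurin mix over 5 min.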
# Sequence of IDH1 R132H (O75874 whole entry R132H): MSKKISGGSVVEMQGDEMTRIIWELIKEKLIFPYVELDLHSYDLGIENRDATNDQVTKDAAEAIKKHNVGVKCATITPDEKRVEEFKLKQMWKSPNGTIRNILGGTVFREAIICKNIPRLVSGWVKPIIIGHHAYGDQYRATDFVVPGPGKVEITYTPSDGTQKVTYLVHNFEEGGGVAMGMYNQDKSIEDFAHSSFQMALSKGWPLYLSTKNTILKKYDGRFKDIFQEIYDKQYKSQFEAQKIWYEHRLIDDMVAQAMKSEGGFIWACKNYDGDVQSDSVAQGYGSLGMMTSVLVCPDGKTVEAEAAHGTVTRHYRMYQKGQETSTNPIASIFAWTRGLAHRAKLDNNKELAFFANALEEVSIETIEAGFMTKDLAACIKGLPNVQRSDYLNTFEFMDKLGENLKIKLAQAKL
row,SMILES,IC50 [nM]
1,"CC(C)[C@@H]1CN(c2nc(C3CC3)c3c(c2C#N)CC(C)(C)OC3)CCN1C(=O)NC1CC1 [Compound 398, (R)-4-(5-cyano-8-cyclopropyl-3,3-dimethyl-3,4-dihydro-1H-pyrano[3,4-c]pyridin-6-yl)-N-cyclopropyl-2-isopropylpiperazine-1-carboxamide]",1000 to 10000
2,"CC(C)[C@@H]1CN(c2nc(C3CC3)c3c(c2C#N)CC(C)(C)OC3)CCN1C(=O)COc1cccnc1 [Compound 399, (R)-8-cyclopropyl-6-(3-isopropyl-4-(2-(pyridin-3-yloxy)acetyl)piperazin-1-yl)-3,3-dimethyl-3,4-dihydro-1H-pyrano[3,4-c]pyridine-5-carbonitrile]",1000 to 10000
3,"Cc1ccn(CC(=O)N2CCN(c3nc(C4CC4)c4c(c3C#N)CC(C)(C)OC4)C[C@H]2C(C)C)n1 [Compound 400, (R)-8-cyclopropyl-6-(3-isopropyl-4-(2-(3-methyl-1H-pyrazol-1-yl)acetyl)piperazin-1-yl)-3,3-dimethyl-3,4-dihydro-1H-pyrano[3,4-c]pyridine-5-carbonitrile]",1000 to 10000
4,"Cc1cnn(CC(=O)N2CCN(c3nc(C4CC4)c4c(c3C#N)CC(C)(C)OC4)C[C@H]2C(C)C)c1 [Compound 401, (R)-8-cyclopropyl-6-(3-isopropyl-4-(2-(4-methyl-1H-pyrazol-1-yl)acetyl)piperazin-1-yl)-3,3-dimethyl-3,4-dihydro-1H-pyrano[3,4-c]pyridine-5-carbonitrile]",< 500
5,"COCC1CN(c2nc(C3CC3)c3c(c2C#N)CC(C)(C)OC3)CCN1C(=O)c1ccoc1 (centres unmarked) [Compound 402, 8-cyclopropyl-6-(4-(furan-3-carbonyl)-3-(methoxymethyl)piperazin-1-yl)-3,3-dimethyl-3,4-dihydro-1H-pyrano[3,4-c]pyridine-5-carbonitrile]",1000 to 10000
6,"CC(C)[C@@H]1CN(c2nc(C3CC3)c3c(c2C#N)CC(C)(C)OC3)CCN1C(=O)Cn1ncc2ccccc21 [Compound 405, (R)-6-(4-(2-(1H-indazol-1-yl)acetyl)-3-isopropylpiperazin-1-yl)-8-cyclopropyl-3,3-dimethyl-3,4-dihydro-1H-pyrano[3,4-c]pyridine-5-carbonitrile]",1000 to 10000
7,"CC(C)[C@@H]1CN(c2nc(C3CC3)c3c(c2C#N)CC(C)(C)OC3)CCN1C(=O)Cn1ccc2ccccc21 [Compound 406, (R)-6-(4-(2-(1H-indol-1-yl)acetyl)-3-isopropylpiperazin-1-yl)-8-cyclopropyl-3,3-dimethyl-3,4-dihydro-1H-pyrano[3,4-c]pyridine-5-carbonitrile]",1000 to 10000
8,"CC(C)[C@@H]1CN(c2nc(C3CC3)c3c(c2C#N)CC(C)(C)OC3)CCN1C(=O)Cn1nccn1 [Compound 407, (R)-6-(4-(2-(2H-1,2,3-triazol-2-yl)acetyl)-3-isopropylpiperazin-1-yl)-8-cyclopropyl-3,3-dimethyl-3,4-dihydro-1H-pyrano[3,4-c]pyridine-5-carbonitrile]",500 to 1000
9,"CC(C)[C@@H]1CN(c2nc(C3CC3)c3c(c2C#N)CC(C)(C)OC3)CCN1C(=O)Cn1ccnn1 [Compound 408, (R)-6-(4-(2-(1H-1,2,3-triazol-1-yl)acetyl)-3-isopropylpiperazin-1-yl)-8-cyclopropyl-3,3-dimethyl-3,4-dihydro-1H-pyrano[3,4-c]pyridine-5-carbonitrile]",1000 to 10000
10,CCOC(=O)[C@H]1CN(c2nc(C(C)C)c3c(c2C#N)CC(C)(C)OC3)CCN1C(=O)c1ccoc1 [Compound 410],500 to 1000
11,CCOC(=O)[C@@H]1CN(c2nc(C(C)C)c3c(c2C#N)CC(C)(C)OC3)CCN1C(=O)c1ccoc1 [Compound 411],500 to 1000
12,"CCc1nc(N2CCN(C(=O)c3ccoc3)[C@H](C(C)C)C2)c(C#N)c2c1COC(C)(C)C2 [Compound 414, (R)-8-ethyl-6-(4-(furan-3-carbonyl)-3-isopropylpiperazin-1-yl)-3,3-dimethyl-3,4-dihydro-1H-pyrano[3,4-c]pyridine-5-carbonitrile]",1000 to 10000
13,"CC(C)[C@@H]1CN(c2nc(C3CC3)c3c(c2C#N)CC(C)(C)OC3)CCN1C(=O)Cn1cc(Br)cn1 [Compound 415, (R)-6-(4-(2-(4-bromo-1H-pyrazol-1-yl)acetyl)-3-isopropylpiperazin-1-yl)-8-cyclopropyl-3,3-dimethyl-3,4-dihydro-1H-pyrano[3,4-c]pyridine-5-carbonitrile]",500 to 1000
14,"CC(C)[C@@H]1CN(c2nc(C3CC3)c3c(c2C#N)CC(C)(C)OC3)CCN1C(=O)COC1CCOC1 (stereo partly drawn) [Compound 417, 8-cyclopropyl-6-((3R)-3-isopropyl-4-(2-(tetrahydrofuran-3-yloxy)acetyl)piperazin-1-yl)-3,3-dimethyl-3,4-dihydro-1H-pyrano[3,4-c]pyridine-5-carbonitrile]",1000 to 10000
15,"CC(=O)OCC(C)(C)C(=O)N1CCN(c2nc(C3CC3)c3c(c2C#N)CC(C)(C)OC3)C[C@H]1C(C)C [Compound 419, (R)-3-(4-(5-cyano-8-cyclopropyl-3,3-dimethyl-3,4-dihydro-1H-pyrano[3,4-c]pyridin-6-yl)-2-isopropylpiperazin-1-yl)-2,2-dimethyl-3-oxopropyl acetate]",1000 to 10000

# Results, then the compound that gave them:
row,IC50 [nM],SMILES
1,1000 to 10000,"COCCC(=O)N1CCN(c2nc(C3CC3)c3c(c2C#N)CC(C)(C)OC3)CC1COC (centres unmarked) [Compound 403, 8-cyclopropyl-6-(3-(methoxymethyl)-4-(3-methoxypropanoyl)piperazin-1-yl)-3,3-dimethyl-3,4-dihydro-1H-pyrano[3,4-c]pyridine-5-carbonitrile]"
2,1000 to 10000,"CC(C)[C@@H]1CN(c2nc(C3CC3)c3c(c2C#N)CC(C)(C)OC3)CCN1C(=O)COCc1ccco1 [Compound 404, (R)-8-cyclopropyl-6-(4-(2-(furan-2-ylmethoxy)acetyl)-3-isopropylpiperazin-1-yl)-3,3-dimethyl-3,4-dihydro-1H-pyrano[3,4-c]pyridine-5-carbonitrile]"
3,< 500,"COC(=O)CC(=O)N1CCN(c2nc(C3CC3)c3c(c2C#N)CC(C)(C)OC3)C[C@H]1C(C)C [Compound 409, (R)-methyl 3-(4-(5-cyano-8-cyclopropyl-3,3-dimethyl-3,4-dihydro-1H-pyrano[3,4-c]pyridin-6-yl)-2-isopropylpiperazin-1-yl)-3-oxopropanoate]"
4,< 500,"COC(=O)CCC(=O)N1CCN(c2nc(C3CC3)c3c(c2C#N)CC(C)(C)OC3)C[C@H]1C(C)C [Compound 412, (R)-methyl 4-(4-(5-cyano-8-cyclopropyl-3,3-dimethyl-3,4-dihydro-1H-pyrano[3,4-c]pyridin-6-yl)-2-isopropylpiperazin-1-yl)-4-oxobutanoate]"
5,< 500,"CCc1nc(N2CCN(C(=O)CCOC)[C@H](C(C)C)C2)c(C#N)c2c1COC(C)(C)C2 [Compound 413, (R)-8-ethyl-6-(3-isopropyl-4-(3-methoxypropanoyl)piperazin-1-yl)-3,3-dimethyl-3,4-dihydro-1H-pyrano[3,4-c]pyridine-5-carbonitrile]"
6,1000 to 10000,"CC(C)[C@@H]1CN(c2nc(C3CC3)c3c(c2C#N)CC(C)(C)OC3)CCN1C(=O)CCC(=O)O [Compound 416, (R)-4-(4-(5-cyano-8-cyclopropyl-3,3-dimethyl-3,4-dihydro-1H-pyrano[3,4-c]pyridin-6-yl)-2-isopropylpiperazin-1-yl)-4-oxobutanoic acid]"
7,1000 to 10000,"CC(C)[C@@H]1CN(c2nc(C3CC3)c3c(c2C#N)CC(C)(C)OC3)CCN1C(=O)CC(=O)O [Compound 418, (R)-3-(4-(5-cyano-8-cyclopropyl-3,3-dimethyl-3,4-dihydro-1H-pyrano[3,4-c]pyridin-6-yl)-2-isopropylpiperazin-1-yl)-3-oxopropanoic acid]"

# Same assay, conditions: IDH1 R132H enzyme, Table 3; read-out: R132H IC50
row,IC50 [nM],SMILES
1,500 to 1000,"COC(=O)C(C)CCC(=O)N1CCN(c2nc(C3CC3)c3c(c2C#N)CC(C)(C)OC3)C[C@H]1C(C)C (stereo partly drawn) [Compound 439, Methyl 5-((R)-4-(5-cyano-8-cyclopropyl-3,3-dimethyl-3,4-dihydro-1H-pyrano[3,4-c]pyridin-6-yl)-2-isopropylpiperazin-1-yl)-2-methyl-5-oxopentanoate]"
2,500 to 1000,"CC(C)[C@@H]1CN(c2nc(C3CC3)c3c(c2C#N)CC(C)(C)OC3)CCN1C(=O)CS(C)(=O)=O [Compound 446, (R)-8-cyclopropyl-6-(3-isopropyl-4-(2-(methylsulfonyl)acetyl)piperazin-1-yl)-3,3-dimethyl-3,4-dihydro-1H-pyrano[3,4-c]pyridine-5-carbonitrile]"
3,500 to 1000,"CC(C)[C@@H]1CN(c2nc(C3CC3)c3c(c2C#N)CC(C)(C)OC3)CCN1C(=O)CCc1ccco1 [Compound 447, (R)-8-cyclopropyl-6-(4-(3-(furan-2-yl)propanoyl)-3-isopropylpiperazin-1-yl)-3,3-dimethyl-3,4-dihydro-1H-pyrano[3,4-c]pyridine-5-carbonitrile]"
4,500 to 1000,"CC(C)[C@@H]1CN(c2nc(C3CC3)c3c(c2C#N)CC(C)(C)OC3)CCN1C(=O)CCc1nnco1 [Compound 448, (R)-6-(4-(3-(1,3,4-oxadiazol-2-yl)propanoyl)-3-isopropylpiperazin-1-yl)-8-cyclopropyl-3,3-dimethyl-3,4-dihydro-1H-pyrano[3,4-c]pyridine-5-carbonitrile]"
5,500 to 1000,"CC(C)[C@@H]1CN(c2nc(C3CC3)c3c(c2C#N)CC(C)(C)OC3)CCN1C(=O)C[S+](C)[O-] (stereo partly drawn) [Compound 453, 8-Cyclopropyl-6-((3R)-3-isopropyl-4-(2-(methylsulfinyl)acetyl)piperazin-1-yl)-3,3-dimethyl-3,4-dihydro-1H-pyrano[3,4-c]pyridine-5-carbonitrile]"
6,< 500,"CCOCCC(=O)N1CCN(c2nc(C3CC3)c3c(c2C#N)CC(C)(C)OC3)C[C@H]1C(C)C [Compound 459, (R)-8-cyclopropyl-6-(4-(3-ethoxypropanoyl)-3-isopropylpiperazin-1-yl)-3,3-dimethyl-3,4-dihydro-1H-pyrano[3,4-c]pyridine-5-carbonitrile]"
7,500 to 1000,COCCC(=O)N1CCN(c2nc(C3CC3)c3c(c2C#N)CC(C)(C)OC3)CC1C(F)F (centres unmarked) [Compound 464]
